Columns and labels:
[1] = test system: P-gp protein in KB-C2 cells; test: Western blot of P-gp expression in KB-C2 cells; type: cell-based, human
Procedure: Cells in T25 flask were washed with ice-cold PBS. Lysis buffer (100 µL) was added into T25 flask. Using a cell scraper, scrape adherent cells were scraped off the flask and the cell suspension was transferred into a microcentrifuge tube (1.5 mL). Cells were agitated for 20 min at 4 °C and cell lysate was centrifuged mixture at 4 °C for 20 min at 12,000 rpm. The supernatant (lysate) was used for the gel electrophoresis. Equal amounts of total cell lysates (20 µg protein) were resolved by sodium dodecyl sulfate polyacrylamide gel electrophoresis (SDS-PAGE) and electrophoretically transferred onto polyvinylidene fluoride (PVDF) membranes. After incubation in a blocking solution (5% milk) for 2 h at room temperature, the membranes were incubated overnight with primary monoclonal antibodies against GAPDH (GA1R) (Invitrogen, Carlsbad, CA, USA) at 1:1000 dilution of BCRP protein (BXP 21) (Sigma-Aldrich, Inc., St. Louis, MO, USA) (1:1000) or P-gp (F4) (Sigma-Aldrich, Inc., St. Louis, MO, USA) at 4 °C, and were further incubated with horseradish […] (HRP)-conjugated secondary antibody (Thermo Fisher Scientific Inc., Waltham, MA, USA) at 1:1000 dilution for 2 h at room temperature. The protein antibody complex was detected using an enhanced chemiluminescence detection system. The grayscale ratio was analyzed by ImageJ and normalized by the grayscale of the ABC protein divided by that of GAPDH.

P-gp ATPase = target: T1, P-gp ATPase (Homo sapiens, UniProt P08183); test: Vanadate-sensitive P-gp ATPase assay; type: biochemical; conditions: membrane vesicles of High Five insect cells; Figure 10C
T1 construct: host or cells: High Five insect cells (membrane vesicles)
Procedure: (§1) The vanadate (Vi)-sensitive ATPase activity of BCRP and P-gp in the membrane vesicles of High Five insect cells was measured as described previously. The results were presented as vanadate-sensitive ATPase activities by determining the difference in inorganic phosphate liberation measured in the presence and absence of sodium orthovanadate.

[2] = test system: BCRP localization in H460/MX20 cells; test: Immunofluorescence assay of BCRP localization in H460/MX20 cells; type: cell-based, human; conditions: 5 μM for 24, 48, and 72 h, Figure 8A,C
Procedure: (§2) For immunofluorescence analysis, parental and drug-resistant cells were seeded in 24-well plates at 10,000–20,000 cells/well and incubated for 24 h. The cells were incubated with or without cyclopropyl quinazolinamine 22 or azide quinazolinamine 33 for 24 h, 48 h, and 72 h. Thereafter, cells were washed with PBS and fixed with 4% paraformaldehyde for 10 min at room temperature and then rinsed with PBS twice, followed by permeabilization with 1% Triton X-100 for 10 min at 4 °C. The cells were again washed twice with PBS, and then blocked with 6% BSA for 1 h at 37 °C. Fixed cells were incubated with monoclonal antibody against the BCRP protein (BXP 21) (Sigma-Aldrich, Inc., St. Louis, MO) (1:1000) or P-gp (F4) (Sigma-Aldrich, Inc., St. Louis, MO, USA) overnight at 4 °C, followed by two washes with PBS. The cells were then further incubated with Alexa flour 488 goat anti-mouse IgG (1:1000) (Abcam plc.) for 2 h at 37 °C. After the cells were washed twice with PBS, 4′,6-diamidino-2-phenylindole (DAPI) (2 µg/mL) was used for nuclear counterstaining. The immunofluorescence images were generated using a Nikon TE-2000S fluorescence microscope (Nikon Instruments Inc, Melville, NY, USA).

[3] = test system: P-gp localization in KB-C2 cells; test: Immunofluorescence assay of P-gp localization in KB-C2 cells; type: cell-based, human; conditions: Figure 8B
Procedure: as §2

BCRP ATPase = target: T2, BCRP ATPase (Homo sapiens, UniProt Q9UNQ0); test: Vanadate-sensitive BCRP ATPase assay; type: biochemical; conditions: membrane vesicles of High Five insect cells; Figure 10A,B
T2 construct: host or cells: High Five insect cells (membrane vesicles)
T2 sequence (Q9UNQ0 1-655): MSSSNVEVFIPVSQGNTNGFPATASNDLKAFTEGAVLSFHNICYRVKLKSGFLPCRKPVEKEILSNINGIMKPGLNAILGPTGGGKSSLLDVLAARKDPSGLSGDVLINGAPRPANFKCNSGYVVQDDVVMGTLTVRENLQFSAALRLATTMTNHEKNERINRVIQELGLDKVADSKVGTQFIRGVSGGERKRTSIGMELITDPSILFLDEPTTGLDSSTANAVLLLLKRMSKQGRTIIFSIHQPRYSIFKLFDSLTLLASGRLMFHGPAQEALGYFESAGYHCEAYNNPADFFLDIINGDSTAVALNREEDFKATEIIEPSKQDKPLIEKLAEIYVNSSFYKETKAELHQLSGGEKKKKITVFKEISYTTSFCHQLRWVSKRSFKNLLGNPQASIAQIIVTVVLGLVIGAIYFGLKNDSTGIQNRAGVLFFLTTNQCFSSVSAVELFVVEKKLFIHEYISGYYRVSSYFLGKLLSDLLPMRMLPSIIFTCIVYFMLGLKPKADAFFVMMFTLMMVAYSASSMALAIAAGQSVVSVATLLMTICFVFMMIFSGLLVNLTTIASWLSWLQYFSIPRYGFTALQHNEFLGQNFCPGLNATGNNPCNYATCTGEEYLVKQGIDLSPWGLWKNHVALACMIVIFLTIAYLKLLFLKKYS
Procedure: as §1

KB-C2 cells = test: [3H]-paclitaxel accumulation assay, KB-C2; type: cell-based, human; conditions: resistant cell line KB-C2; compound 5 μM; Figure 6B
Procedure: To determine the accumulation of drugs on H460, H460/MX20, KB-3-1, and KB-C2 cells, the cells ([…] cells/well) were seeded in the 24-well plates and incubated at 37 °C with 5% CO2 [17]. After 12 h of incubation, a test compound (5 µM) was added and the plates were incubated at 37 °C for 2 h. Cells were then incubated with 0.01 µM [^3H]-MX or [^3H]-paclitaxel-containing medium for an additional 2 h at 37 °C, with or without a test compound. The cells were washed twice with ice-cold phosphate-buffered saline (PBS), trypsinized and lysed at the end of incubation. The radioactivity was measured using the Packard TRICARB1 1900A liquid scintillation analyzer.

T1 sequence (P08183 whole entry): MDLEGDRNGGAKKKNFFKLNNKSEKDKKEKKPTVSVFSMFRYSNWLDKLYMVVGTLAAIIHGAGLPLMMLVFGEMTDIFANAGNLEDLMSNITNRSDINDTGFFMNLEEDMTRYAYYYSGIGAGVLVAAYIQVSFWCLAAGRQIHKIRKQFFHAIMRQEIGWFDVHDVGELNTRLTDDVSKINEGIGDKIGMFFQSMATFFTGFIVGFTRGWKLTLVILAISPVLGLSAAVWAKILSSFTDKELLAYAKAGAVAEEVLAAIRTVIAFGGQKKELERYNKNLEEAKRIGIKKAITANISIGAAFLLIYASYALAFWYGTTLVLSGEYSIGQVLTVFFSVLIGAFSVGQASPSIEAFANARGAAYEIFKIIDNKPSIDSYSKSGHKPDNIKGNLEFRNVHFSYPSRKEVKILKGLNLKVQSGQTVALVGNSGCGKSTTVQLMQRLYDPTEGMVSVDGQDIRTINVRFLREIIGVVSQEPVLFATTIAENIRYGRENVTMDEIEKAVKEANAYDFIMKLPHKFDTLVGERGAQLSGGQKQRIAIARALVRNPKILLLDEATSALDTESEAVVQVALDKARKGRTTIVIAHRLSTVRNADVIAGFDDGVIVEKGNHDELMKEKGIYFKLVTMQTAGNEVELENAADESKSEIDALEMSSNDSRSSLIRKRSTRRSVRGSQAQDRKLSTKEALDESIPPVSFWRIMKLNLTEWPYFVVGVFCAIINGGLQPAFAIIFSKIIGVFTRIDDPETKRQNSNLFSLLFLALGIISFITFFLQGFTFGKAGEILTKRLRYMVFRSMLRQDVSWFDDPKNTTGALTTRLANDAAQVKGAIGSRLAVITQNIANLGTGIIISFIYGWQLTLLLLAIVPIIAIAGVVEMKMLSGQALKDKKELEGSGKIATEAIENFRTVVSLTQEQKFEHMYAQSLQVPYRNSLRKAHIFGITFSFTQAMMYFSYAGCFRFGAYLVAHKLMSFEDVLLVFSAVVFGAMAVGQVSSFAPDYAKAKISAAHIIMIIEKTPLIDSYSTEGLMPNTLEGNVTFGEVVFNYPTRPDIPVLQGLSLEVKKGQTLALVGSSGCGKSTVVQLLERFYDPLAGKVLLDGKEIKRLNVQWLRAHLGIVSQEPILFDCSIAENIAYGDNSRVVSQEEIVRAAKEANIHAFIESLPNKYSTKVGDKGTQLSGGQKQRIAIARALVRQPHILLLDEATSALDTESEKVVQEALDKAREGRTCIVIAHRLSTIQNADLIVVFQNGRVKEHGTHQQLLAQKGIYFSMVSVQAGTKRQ

- effect on Vi-sensitive P-gp ATPase activity (P-gp ATPase): neither stimulate or inhibit
- effect on Vi-sensitive BCRP ATPase activity (ATP hydrolysis) (BCRP ATPase): significantly stimulated
Structure (SMILES): c1ccc2c(Nc3ccc(C4CC4)cc3)nc(-c3ccncc3)nc2c1 [Compound 22, N-(4-Cyclopropylphenyl)-2-(pyridin-4-yl)quinazolin-4-amine]
- cytoplasmic P-gp expression level ([1]; KB-C2 cytoplasm fraction, Figure 9D): slightly increased
- expression level of the P-gp protein on the membrane ([1]; KB-C2 membrane fraction, Figure 9C): slightly decreased
- P-gp protein expression ([1]; KB-C2 total cell lysate, Figure 7B): nor did it change the P-gp protein expression
- BCRP fluorescence on the membranes / intracellular localization of BCRP [2]: decreased gradually
- P-gp fluorescence on the membranes ([3]; 5 μM at 72 h): decreased slightly
- P-gp fluorescence on the membranes ([3]; 5 μM for 24 and 48 h): did not decrease significantly
- accumulation of paclitaxel (KB-C2 cells): significantly increased

Source: article PMC9953095, “Design, Synthesis and Biological Evaluation of Quinazolinamine Derivatives as Breast Cancer Resistance Protein and P-Glycoprotein Inhibitors with Improved Metabolic Stability” (Biomolecules, 2023)
